The target in assay [1] is T1, Bradykinin-1 receptor (Homo sapiens (Human), UniProt P46663). In words: Receptor Binding Assay. As to conditions: membranes from CHO-K1 cells overexpressing Bradykinin-1 receptor; 6 nM [3H]Kallidin (Des Arg10, Leu9); read-out: B1R Binding Ki. Here is the method:
Binding assays were done with membranes from CHO-K1 cells overexpressing Bradykinin-1 receptor.
For binding, Bradykinin-1 receptor antagonist compounds were added in various concentrations in 50 mM Tris pH 7.4, 5 mM MgCl2 together with 6 nM Kallidin (Des Arg^10, Leu^9), [3,4-Prolyl-3,4-^3H(N)] (PerkinElmer, 1.85-4.44 TBq/mmol) to 40 μg membrane protein containing approximately 1 fmol Bradykinin-1 receptor and incubated for 15 min at 27° C. To determine non-specific binding 10 μM Lys-(Des-Arg^9)-Bradykinin (Bachem) was added. Membranes were harvested through GF/B (glass fiber filter; PerkinElmer) plates, equilibrated with 0.5% polyethylenimine, air dried at 50° C. for 2 hr. Radioactivity was determined by counting in a topcounter (NXT Packard). Specific binding was defined as total binding minus nonspecific binding and typically represents about 90-95% of the total binding. Antagonist activity is expressed as Ki: inhibitor concentration required for 50% inhibition of specific binding corrected for the concentration of the radioligand.

Assay [2] concerns the target T1, Bradykinin-1 receptor. In words: Calcium Mobilization Assay. As to conditions: GeneBLAzer Bradykinin (B1)-NFAT-bla CHO-K1 cells; antagonist activity, FLIPR; read-out: Ca mobilization IC50. It counts as cell-based. Here is the method: Calcium Mobilization Assay
GeneBLAzer® Bradykinin (B1)-NFAT-bla CHO-K1 cells (from Invitrogen) stably overexpressing the human bradykinin 1 receptor were cultured in DMEM (high glucose) supplemented with 10% dialysed FBS, 1% NEAA (non essential amino acids) 1% penicillin/streptomycin, 1% G418 and 0.1 mg/ml zeocin.
For the assay cells were grown overnight in 384-well black clear flat bottom polystyrene plates (Costar) at 37° C. at 5% CO2. After washing with DMEM, 20 mM Hepes, 2.5 mM probenecid, 0.1% BSA (DMEM assay buffer) cells were loaded with 4 μM Fluo-4 in the same DMEM assay buffer for 2 hours at 30° C. Excess dye was removed and cells were washed with DMEM assay buffer. 384-well compound plates were prepared with DMEM assay buffer/0.5% DMSO with or without various concentrations of test compounds. Usually compounds were tested for agonist and antagonist activity.
Test compounds were added to the assay plate and agonist activity was monitored as fluorescence for 80 seconds with a FLIPR (488 nm excitation; 510-570 nm emission; Molecular Devices). […] Increases in intracellular calcium are reported as maximum fluorescence after agonist exposure minus basal fluorescence before exposure. Antagonist activity is indicated as inhibitor concentration required for 50% inhibition of specific calcium increases.
Background: Calcium assays in cells follow changes in intracellular calcium, usually with a dye or a luminescent sensor.

T1 sequence (P46663 whole entry): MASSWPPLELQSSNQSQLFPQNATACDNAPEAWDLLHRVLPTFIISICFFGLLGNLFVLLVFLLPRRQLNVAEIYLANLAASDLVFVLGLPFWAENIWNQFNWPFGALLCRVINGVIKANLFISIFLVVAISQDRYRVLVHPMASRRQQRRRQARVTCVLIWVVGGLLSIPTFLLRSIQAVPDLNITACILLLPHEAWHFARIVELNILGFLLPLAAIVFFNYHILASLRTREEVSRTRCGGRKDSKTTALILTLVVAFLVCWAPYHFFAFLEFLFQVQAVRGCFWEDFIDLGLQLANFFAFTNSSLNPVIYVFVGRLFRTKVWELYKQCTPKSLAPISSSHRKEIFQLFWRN

Usually Ki stands for the dissociation constant of the complex between target and ligand, obtained from inhibition or displacement. For orientation: IC50 means the point on the concentration scale where inhibition reaches its midpoint. `Cc1cc(C(=O)NC2(C(=O)N[C@H](C)c3ccc(-c4cc(Cl)cc(F)c4-c4noc(C)n4)cc3F)COC2)on1` [Example 24, 3-Methyl-isoxazole-5-carboxylic acid (3-{(R)-1-[5′-chloro-3,3′-difluoro-2′-(5-methyl-[1,2,4]oxadiazol-3-yl)-biphenyl-4-yl]-ethylcarbamoyl}-oxetan-3-yl)-amide]: the Ki in assay [1] turned out to be 1.2 nM. The IC50 in assay [2] was found to be 0.1 nM.

Take `Cc1nnc(C(=O)NC2(C(=O)N[C@H](C)c3ccc(-c4cc(Cl)cc(Cl)c4OCC(F)F)cc3F)COC2)o1` [Example 38, 5-Methyl-[1,3,4]oxadiazole-2-carboxylic acid (3-{(R)-1-[3′,5′-dichloro-2′-(2,2-difluoro-ethoxy)-3-fluoro-biphenyl-4-yl]-ethylcarbamoyl}-oxetan-3-yl)-amide]: in assay [1], the Ki came to 4.3 nM. In addition, the IC50 in assay [2] worked out at 0.6 nM.

As for `COc1cc(C(=O)NC2(C(=O)N[C@H](C)c3ncc(-c4cc(Cl)cc(Cl)c4OCC(F)F)cc3F)COC2)on1` [Example 18, 3-Methoxy-isoxazole-5-carboxylic acid [3-((R)-1-{5-[3,5-dichloro-2-(2,2-difluoro-ethoxy)-phenyl]-3-fluoro-pyridin-2-yl}-ethylcarbamoyl)-oxetan-3-yl]-amide], the Ki in assay [1] is 3 nM. In addition, in assay [2], the IC50 is 1.1 nM.

In the case of `COC(=O)c1c(Cl)cccc1-c1ccc([C@@H](C)NC(=O)C2(NC(=O)c3cncnc3)COC2)c(F)c1` [Example 7, 3-Chloro-3′-fluoro-4′-[(R)-1-({3-[(pyrimidine-5-carbonyl)-amino]-oxetane-3-carbonyl}-amino)-ethyl]-biphenyl-2-carboxylic acid methyl ester], the Ki in assay [1] was 1.6 nM. Besides, in assay [2], the 50% inhibitory concentration (IC50) is 0.1 nM.

Turning to `Cc1nc(-c2c(F)cc(Cl)cc2-c2cnc([C@@H](C)NC(=O)C3(NC(=O)c4nnc(C)o4)COC3)c(F)c2)no1` [Example 19, 5-Methyl-[1,3,4]oxadiazole-2-carboxylic acid [3-((R)-1-{5-[5-chloro-3-fluoro-2-(5-methyl-[1,2,4]oxadiazol-3-yl)-phenyl]-3-fluoro-pyridin-2-yl}-ethylcarbamoyl)-oxetan-3-yl]-amide], the inhibitory constant (Ki) in assay [1] was found to be 5.1 nM. Further, the IC50 in assay [2] is 1.2 nM.

For `Cc1cc(C(=O)NC2(C(=O)N[C@H](C)c3ncc(-c4cc(Cl)cc(F)c4-c4noc(C)n4)cc3F)COC2)on1` [Example 4, 3-Methyl-isoxazole-5-carboxylic acid [3-((R)-1-{5-[5-chloro-3-fluoro-2-(5-methyl-[1,2,4]oxadiazol-3-yl)-phenyl]-3-fluoro-pyridin-2-yl}-ethylcarbamoyl)-oxetan-3-yl]-amide], the Ki in assay [1] worked out at 2.5 nM. In addition, the IC50 in assay [2] came to 0.2 nM.

Take `Cc1nc(-c2c(F)cc(Cl)cc2-c2cnc([C@@H](C)NC(=O)C3(NC(=O)c4ccno4)COC3)c(F)c2)no1` [Example 3, Isoxazole-5-carboxylic acid [3-((R)-1-{5-[5-chloro-3-fluoro-2-(5-methyl-[1,2,4]oxadiazol-3-yl)-phenyl]-3-fluoro-pyridin-2-yl}-ethylcarbamoyl)-oxetan-3-yl]-amide]: the Ki in assay [1] is 2.4 nM. The IC50 in assay [2] turned out to be 0.4 nM.

Take `Cc1nc(-c2c(F)cc(Cl)cc2-c2cnc([C@@H](C)NC(=O)C3(NC(=O)c4snnc4C)COC3)c(F)c2)no1` [Example 16, 4-Methyl-[1,2,3]thiadiazole-5-carboxylic acid [3-((R)-1-{5-[5-chloro-3-fluoro-2-(5-methyl-[1,2,4]oxadiazol-3-yl)-phenyl]-3-fluoro-pyridin-2-yl}-ethylcarbamoyl)-oxetan-3-yl]-amide]: in assay [1], the Ki was 1.6 nM. In assay [2], the IC50 was determined as 0.4 nM.

Regarding `COc1ncc(C(=O)NC2(C(=O)N[C@H](C)c3ccc(-c4cc(Cl)cc(Cl)c4OCC(F)F)cc3F)COC2)cn1` [Example 35, 2-Methoxy-pyrimidine-5-carboxylic acid (3-{(R)-1-[3′,5′-dichloro-2′-(2,2-difluoro-ethoxy)-3-fluoro-biphenyl-4-yl]-ethylcarbamoyl}-oxetan-3-yl)-amide], the Ki in assay [1] came to 3.3 nM. Also, the IC50 in assay [2] turned out to be 0.3 nM.

For the origin of these results see patent publication US8912221B2, “Biaryl amide derivatives” (Hoffmann-La Roche Inc., priority 2010, dated 2014).
